Entries after “also recorded” stand apart in the source; their conditions may differ.
How the values were obtained:
[1] = tested on: gastric cancer cell NCI-N87; assay: CCK-8 inhibition of proliferation, NCI-N87; format: cell-based, human
Method: (§1) The tumor cell lines employed in the present experiment were gastric cancer cell NCI-N87 (obtained from Guangzhou Jennio Biological Technology Co., Ltd.), colorectal cancer cell HCT-116 (obtained from Chengdu Center for Safety Evaluation of Drugs), colorectal cancer cell HCT-15 and pancreatic cancer cell BxPC-3 (both obtained from ATCC, US).
(§2) Each of the cell lines is cultured in a corresponding culture medium (RPMI-1640, IMDM and L-15 culture medium (manufacturer: Gibco)) supplemented with 10% heat inactivated Fetal Bovine Serum (manufacturer: Sigma), in an incubator at 37° C. and 5% CO2.
(§3) For each type of tumor cells, a blank group, a vehicle group (containing 1‰ DMSO) and 8 groups with a test compound at concentrations of 5 nM, 10 nM, 50 nM, 100 nM, 500 nM, 1000 nM, 5000 nM, and 10000 nM (with each concentration in triplicate) were set.
(§4) Appropriate amounts of test compounds were weighted, and dissolved in DMSO (cell culture grade, Sigma) to prepare stock solutions of various concentration gradients according to desired concentrations. During incubation, they were diluted by 1000 times as necessary, and incubation solutions with various drug concentrations were prepared (compound stock solution:medium containing 2% FBS=1:1000).
(§5) The experiment was performed according to a CCK-8 method as described below. Cancer cells to be tested were seeded in a 96-well culture plate at a concentration of 5˜10×10^4/mL (100 μL/well), followed by incubation at 37° C. and 5% CO2 for 24 h. The medium was discarded, and incubation solutions with different drug concentrations (200 μL) were respectively added to each well, and the cells were further incubated for 72 h. After the incubation, a CCK-8 solution (20 μL/well) was added to each well to be tested, and the incubation was continued for 4 h in the incubator. OD values at two wavelengths (Detection wavelength: 450 nm, and reference wavelength: 650 nm) were determined on a multifunctional fully-automatic microplate reader.
(§6) The inhibitory rate of tumor cell growth was calculated according to the following formula: Inhibitory rate=[(ODvehicle−ODblank)−(ODdrug−ODblank)]/(ODvehicle−ODblank)*100%
(§7) Based on the inhibitory rate, a concentration-inhibitory rate curve was fit using GraphPad prism 5.0 software, and IC50 was calculated.

[2] = tested on: colorectal cancer cell HCT-15; assay: CCK-8 inhibition of proliferation, HCT-15; format: cell-based, human
Method: as §1, §2, §3, §4, §5, §6, §7

[3] = tested on: pancreatic cancer cell BxPC-3; assay: CCK-8 inhibition of proliferation, BxPC-3; format: cell-based, human
Method: as §1, §2, §3, §4, §5, §6, §7

[4] = tested on: gastric cancer cell NCI-N87; assay: Subcutaneous xenograft of gastric cancer cell NCI-N87 in nude mice (Experimental example 2); format: in vivo; conditions: for TGI (%): twice a week for 3 weeks; for Body weight change: 14 days after last administration vs beginning; for Tumor regression, CR (complete tumor regression): animals out of 8
Method: (§9) This experimental example was used for the evaluation of the effectiveness of the compounds of the present invention in inhibiting the proliferation of a subcutaneous xenograft of human tumor cells via various routes of administration.
(§10) Gastric cancer cell NCI-N87 and colorectal cancer cell HCT-116 were cultured as a monolayer in vitro, and the culture conditions were RPMI-1640 culture medium supplemented with 10% heat inactivated Fetal Bovine Serum, and incubation in an incubator at 37° C. and 5% CO2. The cells were subcultured by treatment with trypsin-EDTA digestion.
(§11) The tumor cells were respectively inoculated into BALB/c nude mice (SPF grade, female, 16-18 g per mouse, about 6 to 8 weeks old, Beijing Vital River Laboratory Animal Technology Co., Ltd.).
(§12) Each nude mouse was inoculated with about 2.5×10^6 HCT-116 tumor cells or about 3×10^6 NCI-N87 tumor cells (suspended in 0.1 ml PBS) subcutaneously into the underarm of the right flank. After the inoculated tumor reached a size in the range of about 100-200 mm^3, nude mice bearing a tumor that is too small (smaller than 100 mm^3) or too big (bigger than 200 mm^3) were removed from the study, and the remaining ones were randomized into groups.
(§13) Sulfobutyl ether-β-cyclodextrin (SE-β-CD) was formulated with physiological saline to form a 10% solution, which was then filtered through a 0.22 μm sterile filter for later use.
(§14) An appropriate amount of the test compound was weighted, and added in DMSO. The resultant solution was vortexed to uniformity, and the 10% solution of SE-β-CD was added according to the desired concentration. The solution was vortexed to uniformity, and the final concentration of DMSO was adjusted to 5%. A gemcitabine injection (a positive control) was directly diluted to the desired concentration with physiological saline. A 10% solution of SE-β-CD containing 5% DMSO was prepared as a vehicle control.
(§15) Mice bearing a tumor having a volume of about 100-200 mm^3 were selected, and randomized into 5 groups (8 mice per group). The dosing volume was 10 mL/kg, and the administration (intravenous administration (i.v.) or oral administration (p.o.)) was performed twice a week for 3 weeks. The tumor volume and body weight were measured twice a week after the administration, and the mortality of animals was observed every day.
(§16) The diameter of a tumor was measured, and the tumor volume was calculated according to the following formula: V=0.5a×b^2, wherein a and b respectively represent the major and minor diameters of a tumor. The anti-tumor effect was evaluated by the tumor growth inhibition (TGI) (%). TGI (%)=[1−(VT-end−VT-start)/(VC-end−VC-start)]*100%
(§17) The body weight of an animal was measured twice a week.

[5] = tested on: human pancreatic cancer cell BxPC-3; assay: Subcutaneous xenograft of human pancreatic cancer cell BxPC-3 in a nude mouse (Experimental example 3); format: in vivo; conditions: once every 3 days, 4 times
Method: According to methods similar to those in sections 1 to 2 in Experimental example 2, pancreatic cancer cell BxPC-3 was cultured as a monolayer in vitro, and inoculated, and the animals were randomized into groups.
An appropriate amount of the test compound was weighted out, and added in DMSO. The 10% solution of SE-β-CD was then added according to the desired concentration, and the final concentration of DMSO was adjusted to 2.5%. A gemcitabine injection (a positive control) was diluted to the desired concentration with physiological saline. A 10% solution of SE-β-CD containing 2.5% DMSO was prepared as a vehicle control.
Mice bearing a tumor having a volume of 100-200 mm^3 were selected, and randomized into 14 groups (7 mice per group). The dosing volume was 20 mL/kg, and the administration (intravenous administration (i.v.)) was performed once every 3 days, for 4 times in total.
(§8) For statistical calculations of the test indexes, please refer to Experimental example 2.

[6] = tested on: human pancreatic cancer cell BxPC-3; assay: Subcutaneous xenograft of human pancreatic cancer cell BxPC-3 in a nude mouse (Experimental example 4); format: in vivo
Method: According to methods similar to those in sections 1 to 3 in Experimental example 2, pancreatic cancer cell BxPC-3 was cultured as a monolayer in vitro, and inoculated; the animals were randomized into groups; and samples were prepared.
Mice bearing a tumor having a volume of 80-250 mm^3 were selected, and randomized into 6 groups (8 mice per group). The dosing volume was 10 mL/kg.
as §8
The test results obtained by administrating (intravenous administration (i.v.) or oral administration (p.o.)) once a week for 3 weeks are shown in table 7-2.

[7] = tested on: human pancreatic cancer cell Capan-1; assay: Subcutaneous xenograft of human pancreatic cancer cell Capan-1 in a nude mouse (Experimental example 5); format: in vivo; conditions: once every 3 days, 6 times
Method: According to methods similar to those in sections 1 to 2 in Experimental example 2, pancreatic cancer cell Capan-1 was cultured as a monolayer in vitro, and inoculated, and the animals were randomized into groups.
Samples were prepared as described in Experimental example 2.
Mice bearing a tumor having a volume of 100-200 mm^3 were selected, and randomized into 7 groups (7 mice per group).
as §8

[8] = tested on: human pancreatic cancer cell PANC-1; assay: Subcutaneous xenograft of human pancreatic cancer cell PANC-1 in a nude mouse (Experimental example 6); format: in vivo; conditions: once every 3 days, 6 times
Method: This test was performed according to experimental example 5.
Mice bearing a tumor having a volume of 100-200 mm^3 were selected, and randomized into 4 groups (6 mice per group).

[9] = Oral toxicity test in mice (administration for 7 days); format: in vivo; conditions: once per day for 7 days
Method: Normal Male and female Kunming mice (SPF grade, obtained from Laboratory Animal Center in Sichuan Academy of Chinese Medicine Science) were randomized by weight into groups. The test compound and vehicle control were formulated according to Experimental example 2. The dosage volume was 10 mL/kg, and the administration was performed by oral gavage, once per day for 7 consecutive days.

[10] = tested on: colorectal cancer cell HCT-116; assay: Subcutaneous xenograft of colorectal cancer cell HCT-116 in nude mice (Experimental example 2); conditions: for TGI (%): twice a week for 3 weeks; for Body weight change: 14 days after last administration vs beginning; for Tumor regression, CR (complete tumor regression) / Tumor regression, PR (partial tumor regression): animals out of 8
Method: as §9, §10, §11, §12, §13, §14, §15, §16, §17

CC(C)OC(=O)[C@H](C)N[P@](=O)(OC[C@H]1S[C@@H](n2ccc(N)nc2=O)[C@@H](F)[C@@H]1O)Oc1ccccc1 [Compound C8, (S)-isopropyl 2-(((S)-(((2R,3S,4S,5R)-5-(4-amino-2-oxopyrimidin-1(2H)-yl)-4-fluoro-3-hydroxytetrahydrothiophen-2-yl)methoxy)(phenoxy)phosphoryl)amino)propanoate]
inhibitory effect on gastric cancer cell NCI-N87 (in words) ([1]; FIG. 1: 5-10000 nM): potent inhibitory effects; also recorded: excellent inhibitory effects | IC50 ([1]; Homo sapiens, NCI-N87, CCK-8, 72 h incubation): 483 nM | inhibitory effect on colorectal cancer cell HCT-15 (in words) ([2]; FIG. 1: 5-10000 nM): potent inhibitory effects; also recorded: excellent inhibitory effects | IC50 ([2]; Homo sapiens, HCT-15, CCK-8, 72 h incubation): 1960 nM | inhibitory effect on pancreatic cancer cell BxPC-3 (in words) ([3]; FIG. 1: 5-10000 nM): potent inhibitory effects; also recorded: excellent inhibitory effects | IC50 ([3]; Homo sapiens, BXPC-3, CCK-8, 72 h incubation): 705 nM | TGI (%) ([4]; 190 μmol/kg i.v.): 109% | Body weight change ([4]; 190 μmol/kg i.v.): +8.1% | Tumor regression, CR (complete tumor regression) ([4]; 190 μmol/kg i.v.): 8/8 CR | TGI (%) ([4]; 190 μmol/kg p.o.): 110% | Body weight change ([4]; 190 μmol/kg p.o.): +8.1% | Tumor regression, CR (complete tumor regression) ([4]; 190 μmol/kg p.o.): 8/8 CR | TGI (%) ([5]; 0.04 mmol/kg i.v.): 26.9% | TGI (%) ([5]; 0.12 mmol/kg i.v.): 74.9% | TGI (%) ([5]; 0.24 mmol/kg i.v.): 82.9% | TGI (%) ([6]; 0.06 mmol/kg p.o., twice a week for 3 weeks): 47.7% | TGI (%) ([6]; 0.12 mmol/kg p.o., twice a week for 3 weeks): 53.2% | TGI (%) ([6]; 0.23 mmol/kg p.o., once a week for 3 weeks): 51.0% | TGI (%) ([7]; 0.02 mmol/kg p.o.): 25.6% | TGI (%) ([7]; 0.06 mmol/kg i.v.): 81.8% | TGI (%) ([7]; 0.06 mmol/kg p.o.): 79.1% | TGI (%) ([7]; 0.19 mmol/kg p.o.): 138.5% | TGI (%) ([8]; 0.06 mmol/kg p.o.): 155% | TGI (%) ([8]; 0.19 mmol/kg p.o.): 195% | dosage at which death of animals occurred ([9]; oral gavage): ~115 µmol/kg | Results: mortality (3 Male + 3 Female) ([9]; ~77 μmol/kg oral gavage): survived | Results: clinical symptoms (3 Male + 3 Female) ([9]; ~6 mg/kg (~12 μmol/kg) oral gavage): No abnormal symptoms | Results: clinical symptoms (3 Male + 3 Female) ([9]; ~20 mg/kg (~38 μmol/kg) oral gavage): No abnormal symptoms | Mortality ([10]; 190 μmol/kg i.v.): 0 | TGI (%) ([10]; 190 μmol/kg i.v.): 111% | Body weight change ([10]; 190 μmol/kg i.v.): +7.4% | Tumor regression, CR (complete tumor regression) ([10]; 190 μmol/kg i.v.): 1/8 CR, | Tumor regression, PR (partial tumor regression) ([10]; 190 μmol/kg i.v.): 7/8 PR | Mortality ([10]; 190 μmol/kg p.o.): 0 | TGI (%) ([10]; 190 μmol/kg p.o.): 113% | Body weight change ([10]; 190 μmol/kg p.o.): +8.9% | Tumor regression, CR (complete tumor regression) ([10]; 190 μmol/kg p.o.): 1/8 CR, | Tumor regression, PR (partial tumor regression) ([10]; 190 μmol/kg p.o.): 7/8 PR
